We go through seven compounds from PMC6052416, “Selective inhibition of carbonic anhydrase-IX by sulphonamide derivatives induces pH and reactive oxygen species-mediated apoptosis in cervical cancer HeLa cells” (Journal of Enzyme Inhibition and Medicinal Chemistry, 2018).

By IC50 is commonly meant the concentration needed to halve the response being measured. By Ki is commonly meant the dissociation constant of the complex between target and ligand, obtained from inhibition or displacement.

Assay [1] concerns HEK-293 (embryonic kidney epithelial cell). The assay is described as follows: WST-1 cytotoxicity, HEK-293. The assay is classed as cell-based. The settings on record: normal cell. As for the experimental part:
(§1) Cancer and normal cell lines were purchased from ATCC and stored in liquid nitrogen. HT-29 (colon adenoma cancer), HeLa (cervix adenoma cancer cell), MDA-MB-231 (breast adenoma cancer cell), HEK-293 (embryonic kidney epithelial cell) and PNT-1A (normal prostate cells) cell lines were incubated in DMEM: F-12 and RPMI-1640, including 10% foetal bovine serum (FBS), 100 µg/mL streptomycin/100 IU/mL penicillin, at 37 °C in an incubator containing 5% CO2, 95% air in a humid atmosphere.
(§2) The cytotoxic effects of the substances were evaluated with WST-1 kits (Roche, Germany) in accordance with the manufacturer’s protocols. The cells were planted in 96-well plates (10^4 cells in each well). After incubation for 24 h, the media were discarded and the substances and 5-Fu as the control drug, at doses of 0, 2.5, 5, 10, 25, 50, 100 and 200 µM, were incubated for 24, 48 and 72 h. WST-1 reactive of 10 µL was added to all wells. Following 4-h incubation, the measurements were taken on a plate reader (Spectramax M5) at wavelengths of 450 and 630 nm. Graphs were then created and the IC50 value of each substance was calculated.
For orientation: Formazan colour is commonly taken as a measure of viable cells.

The target of another assay is hCA IX. Also on record: method as in PMID 25913118, PMID 26803577. The following applies: cited from earlier work.
The test system of assay [2] is HeLa (cervix adenoma cancer cell). The assay is described as follows: WST-1 cytotoxicity, HeLa. The assay is classed as cell-based, human. Here is the method: as §1, §2
In assay [3] the test system is MDA-MB-231 (breast adenoma cancer cell). The assay is described as follows: WST-1 cytotoxicity, MDA-MB-231. The assay is classed as cell-based, human. Here is the method: as §1, §2
Assay [4] has as its system HT-29 (colon adenoma cancer). The experiment in a line: WST-1 cytotoxicity, HT-29. The assay is classed as cell-based, human. Here is the method: as §1, §2
In assay [5] the test system is PNT-1A (normal prostate cells). The experiment in a line: WST-1 cytotoxicity, PNT-1A. The assay is classed as cell-based. The following applies: normal cell. As for the experimental part: as §1, §2
A further assay has as its target hCA XII. On the set-up: method as in PMID 25913118, PMID 26803577. The following applies: cited from earlier work.
Setting [6] is: WST-1, 24 h, read-out: IC50 HEK-293 24 h.
Setting [7] is: WST-1, 72 h, read-out: IC50 HEK-293 72 h.
The mark [8] stands for this setting: WST-1, 24 h, mean of three experiments, read-out: IC50 HeLa 24 h.
Setting [9] is: WST-1, 48 h, read-out: IC50 HeLa 48 h.
[10] abbreviates: WST-1, 48 h, read-out: IC50 MDA-MB-231 48 h.
The mark [11] stands for this setting: WST-1, 72 h, read-out: IC50 MDA-MB-231 72 h.
Where [12] appears, read: WST-1, 24 h, read-out: IC50 HT-29 24 h.
[13] abbreviates: WST-1, 48 h, read-out: IC50 HT-29 48 h.
Where [14] appears, read: WST-1, 72 h, read-out: IC50 HT-29 72 h.
Where [15] appears, read: WST-1, 24 h, read-out: IC50 PNT-1A 24 h.
[16] abbreviates: WST-1, 48 h, read-out: IC50 PNT-1A 48 h.
[17] abbreviates: WST-1, 72 h, read-out: IC50 PNT-1A 72 h.
Where [18] appears, read: WST-1, 48 h, read-out: IC50 HEK-293 48 h.
Where [19] appears, read: WST-1, 72 h, read-out: IC50 HeLa 72 h.

Structures are written as SMILES. Where two headings read alike, the source gives them in different places.

As to `Cc1cccc(C=NCCc2ccc(S(N)(=O)=O)cc2)c1O` [Compound 2], the IC50 in assay [1] (setting [6]) is 114 ± 3.44 µM; in assay [1] (setting [7]) it was 75.2 ± 5.6 µM; in assay [2] (setting [8]), 27.1 ± 1.3 µM; in assay [2] (setting [9]), 49.6 ± 0.8 µM. In addition, at hCA IX, the Ki is 295 nM.

Take `Cc1cccc(C=Nc2ccc(S(N)(=O)=O)cc2)c1O` [Compound 3]: the IC50 in assay [1] (setting [6]) was 196 ± 14.3 µM; in assay [1] (setting [7]), 37.9 ± 3.6 µM; in assay [2] (setting [8]), 36.3 ± 0.2 µM; in assay [2] (setting [9]), 29.8 ± 2.3 µM; in assay [3] (setting [10]), 80.6 ± 12.4 µM; in assay [3] (setting [11]), 96.7 ± 33.4 µM. Moreover, on hCA IX, the Ki was 465 nM.

`Cc1ccc(C=NCCc2ccc(S(N)(=O)=O)cc2)cc1` [Compound 4]: the IC50 in assay [1] (setting [7]) was found to be 96.2 ± 12.2 µM; in assay [4] (setting [12]), 33 ± 2.3 µM; in assay [4] (setting [13]) it was 23.7 ± 2.2 µM; in assay [4] (setting [14]), 119 ± 23.2 µM; in assay [3] (setting [11]), 178 ± 11.2 µM. Besides, at hCA IX, the Ki was 123 nM.

In the case of `O=c1[nH]cc(F)c(=O)[nH]1` [Compound 5-FU, reference compound], the IC50 in assay [5] (setting [15]) amounted to 23.1 ± 4.55 µM; in assay [5] (setting [16]), 21.2 ± 2.2 µM; in assay [5] (setting [17]) it was 17.5 ± 7.6 µM; in assay [1] (setting [6]), 44.6 ± 7.2 µM; in assay [1] (setting [18]), 19.8 ± 2.3 µM; in assay [1] (setting [7]) it was 14.5 ± 3.2 µM. Also, the IC50 in assay [4] (setting [12]) came out at 47.3 ± 1.2 µM; in assay [4] (setting [13]) it was 23.4 ± 2.1 µM; in assay [4] (setting [14]) it was 19.3 ± 1.2 µM; in assay [2] (setting [8]), 37.8 ± 4.3 µM; in assay [2] (setting [9]), 31.2 ± 2.3 µM; in assay [2] (setting [19]) it was 14.7 ± 0.6 µM. The IC50 in assay [3] (WST-1, 24 h, read-out: IC50 MDA-MB-231 24 h) worked out at 42.6 ± 2.56 µM; in assay [3] (setting [10]), 37.9 ± 12.3 µM; in assay [3] (setting [11]) it was 21 ± 4.3 µM.

`Cc1ccc(C=Nc2ccc(S(N)(=O)=O)cc2)cc1` [Compound 5]: the IC50 stood at 170 ± 11.2 µM in assay [1] (setting [7]), 182 ± 12.2 µM in assay [2] (setting [9]) and 74.7 ± 12.4 µM in assay [3] (setting [10]). Also, the values for the Ki at hCA XII and at hCA IX were 9.9 nM and 23.7 nM, respectively.

Take `COc1ccc(C=Nc2ccc(S(N)(=O)=O)cc2)cc1` [Compound 6]: the IC50 in assay [5] (setting [15]) was determined as 154 ± 16.5 µM; in assay [5] (setting [16]), 120 ± 11.2 µM; in assay [5] (setting [17]), 76.4 ± 13.3 µM; in assay [1] (setting [7]) it was 100 ± 22.2 µM; in assay [4] (setting [14]) it was 187 ± 23.4 µM; in assay [2] (setting [9]) it was 198 ± 14.3 µM. Besides, the IC50 in assay [2] (setting [19]) stood at 123 ± 11.1 µM. In addition, the Ki on hCA XII was 11.2 nM; on hCA IX it was 883 nM.

In the case of `COc1ccc(C=NCCc2ccc(S(N)(=O)=O)cc2)cc1` [Compound 7], the IC50 came out at 190 ± 8.6 µM in assay [5] (setting [16]); 130 ± 32.2 µM in assay [5] (setting [17]); 120 ± 13.8 µM in assay [1] (setting [6]); 98.3 ± 11.2 µM in assay [1] (setting [18]); 85.4 ± 11.2 µM in assay [1] (setting [7]); 123 ± 12.3 µM in assay [3] (setting [10]). Moreover, the IC50 in assay [3] (setting [11]) stood at 98.2 ± 11.2 µM. Further, the Ki at hCA IX was 231 nM.
